Source: PubChem BioAssay AID1996
Values after ≈ are worked out from the molar mass of the structure shown.

Details: buffer; pH 7.4; 200.0 µM

Compound | solubility kinetic
Fc1ccc2[nH]c3c(N4CCc5ccccc5C4)ncnc3c2c1 | 1.2 µg/mL (≈ 3.77 µM)
O=C(COC(=O)c1ccccc1Cl)NC1CCCCCC1 | 29.5 µg/mL (≈ 95.2 µM)
Cc1ccc(CN2CCC(CO)(CC3CCCCO3)CC2)o1 (configuration not stated) | > 46.1 µg/mL
CCc1c(C#N)sc(C(N)=O)c1CC | > 31.2 µg/mL
COc1ccc(OC)c(S(=O)(=O)n2ccnc2C(C)C)c1 | 46.1 µg/mL (≈ 149 µM)
O=c1c2cc(Cl)cc(Cl)c2nc2n1CCC2 | 35 µg/mL (≈ 137 µM)
NC(=O)COC(=O)c1ccc2c(c1)S(=O)(=O)c1ccccc1C2=O | 7.5 µg/mL (≈ 21.7 µM)
Cc1nn(C)c(C)c1NS(=O)(=O)c1ccc(Cl)cc1 | > 45 µg/mL
Cc1cccc(NC(=O)C2C3CCCCC32)c1 (configuration not stated) | 3 µg/mL (≈ 13.1 µM)
Brc1ccc(OCCCCN2CCCCC2)cc1 | 40.7 µg/mL (≈ 130 µM)
Cc1ccc(S(=O)(=O)Nc2ccc(Nc3ccccc3)cc2)cc1 | 2.5 µg/mL (≈ 7.39 µM)
CC(C)c1ccc(N2C(=O)CC(=O)NC2=O)cc1 | 34.4 µg/mL (≈ 140 µM)
O=C(CNC(=O)c1ccc2c(c1)OCO2)NCc1cccs1 | 34.8 µg/mL (≈ 109 µM)
CCOc1ccc(NC(=O)CCNC(=O)c2ccco2)cc1 | > 45.3 µg/mL
CCc1ccccc1NC(=O)c1ccc(-c2csc(C)n2)cc1 | 1 µg/mL (≈ 3.1 µM)
O=C(O)COCC(=O)Nc1ccc2c(c1)ncn2CCc1ccccc1 | > 53 µg/mL
Cc1cc(C)nc(NC(=O)NC(=O)c2ccccc2)n1 | > 40.5 µg/mL
CCOC(=O)Cc1csc(NC(=O)/C=C/c2ccccc2Cl)n1 | < 0.4 µg/mL
O=C(NNC1=NS(=O)(=O)c2ccccc21)c1ccccc1 | > 45.2 µg/mL
C=CCn1c(O)c(C(C)=Nc2ccc3c(c2)CCC3)c(=O)[nH]c1=O | 0.8 µg/mL (≈ 2.46 µM)
CCn1c(Oc2ccc(F)cc2)nc2c1c(=O)n(C)c(=O)n2C | > 47.7 µg/mL
Cc1c(C=N)c(O)n(C)c(=O)c1C#N | > 28.7 µg/mL
O=C(NCC(O)c1ccc2ccccc2c1)c1c(F)cccc1F (configuration not stated) | 41.9 µg/mL (≈ 128 µM)
CCC1CN(C(=O)NCc2ccccc2)c2cc(Cl)ccc2O1 (configuration not stated) | < 0.4 µg/mL

Compound | solubility kinetic
Cc1cc(-c2nc(-c3ccc(C(C)(C)C)cc3)no2)no1 | < 0.2 µg/mL
COc1ccccc1CSc1nc2c(c(=O)n(C)c(=O)n2C)n1C | 9.8 µg/mL (≈ 28.3 µM)
O=C(OCC(=O)N1CCCCCC1)c1cccnc1Cl | > 44.5 µg/mL
CC(=O)Nc1ccc(S(=O)(=O)N(C)CC(=O)OCC(=O)N2CCCCCC2)cc1 | 60.3 µg/mL (≈ 142 µM)
O=C(CSCc1ccc(C(=O)O)cc1)Nc1ccc2ccccc2c1 | > 52.7 µg/mL
COc1ccc(NC(=O)c2scc(S(=O)(=O)C(C)C)c2N)cc1 | 45.5 µg/mL (≈ 128 µM)
O=C(CS(=O)c1ccc(Br)cc1)N1CCOCC1 (configuration not stated) | 49.4 µg/mL (≈ 149 µM)
CSc1ncc(C(=O)Nc2cccc(C)c2C)c(C)n1 | 17 µg/mL (≈ 59.2 µM)
Nc1nccc(-c2cccs2)n1 | > 26.6 µg/mL
Cc1ccc(NC(=O)Cc2ccccc2)cc1S(=O)(=O)N1CCOCC1 | > 56.2 µg/mL
Cc1ccc(NC(=O)C2CCCC2)c(Br)c1 | 8.6 µg/mL (≈ 30.5 µM)
O=[N+]([O-])c1ccc(Nc2nccc(Cl)n2)cc1 | 1.4 µg/mL (≈ 5.59 µM)
Cc1cc(C)c(C(=O)Nc2cccc(F)c2)c(Cl)n1 | > 41.8 µg/mL
O=C(NCc1cccc(Cl)c1)c1ccc2ccccc2n1 | 3.6 µg/mL (≈ 12.1 µM)
c1ccc2c(c1)CCc1ccccc1C2=C1CCNCC1 | 30.7 µg/mL (≈ 111 µM)
COc1ccccc1NC(=O)C1CCN(S(C)(=O)=O)CC1 | > 46.9 µg/mL
Cn1c(N)c(C(=O)CSc2nnc(N)s2)c(=O)n(C)c1=O | > 49.3 µg/mL
Cc1c(C(=O)N2CCOCC2)sc(NC(=O)CCl)c1C#N | > 49.2 µg/mL
Cc1ccc(N2C(=O)CC(=O)NC2=O)c(C)c1 | > 34.8 µg/mL
CC(C)(C)NC(=O)COC(=O)C1c2ccccc2Oc2ccccc21 | 48.9 µg/mL (≈ 144 µM)
Cc1ccc(C)c(NC(=O)C(c2ccccc2)N2CCN(CC(=O)N3CCOCC3)CC2)c1 (configuration not stated) | > 67.6 µg/mL
COc1ccc(NC(=O)COC(=O)C(NC(=O)c2ccc(C)cc2)C(C)C)cn1 (configuration not stated) | 57.9 µg/mL (≈ 145 µM)
CS(=O)(=O)c1ccc(C(=O)OCC(=O)Nc2cccnc2Cl)cc1[N+](=O)[O-] | > 62.1 µg/mL
